Data: ChEMBL document CHEMBL3044558, “Structure-activity relationship development of dihaloaryl triazole compounds as insecticides and acaricides. 1. Phenyl thiophen-2-yl triazoles” (2007)
Activity calls are given as the source filed them. The rule behind the calls is not given here.

Experiments:
Tetranychus urticae = assay: Insecticidal activity against female Tetranychus urticae (two-spotted spider mite) infested cotton leaf disks followed by 2.5 ppm compound spraying after oviposit assessed as insect mortality measured after 6 days post compound application under green house conditions; assay type: functional; settings: foliar, 144 h
Bemisia tabaci [1] = assay: Insecticidal activity against Bemisia tabaci (sweet potato whitefly) second-instar larvae infested five weeks old cotton plants followed by compound 250 ppm compound spraying after insect oviposit assessed as insect mortality measured 13 days post compound treatment under green house conditions; assay type: functional
Trichoplusia ni [2] = tested on: Trichoplusia ni
Aphis gossypii [3] = assay: Insecticidal activity against Aphis gossypii (cotton aphid) infested one week old Crookneck squash plants assessed as insect mortality at 50 ppm measured after 3 days post compound application under green house conditions; assay type: functional; settings: 72 h
Heliothis virescens = assay: Insecticidal activity against Heliothis virescens (tobacco budworm) second-instar larvae infested on 400 ppm compound pre-treated cotton cotyledon disk assessed as insect mortality measured 5 days post compound treatment under green house conditions; assay type: functional
Spodoptera exigua = assay: Insecticidal activity against Spodoptera exigua second-instar larvae feeded on 400 ppm compound treated lepidopteran diet assessed as insect mortality measured 5 days post compound treatment under green house conditions; assay type: functional; settings: at 400 ppm
Trichoplusia ni [4] = assay: Insecticidal activity against Trichoplusia ni (cabbage looper) second-instar larvae infested on 400 ppm compound pre-treated cabbage leaf disk assessed as insect mortality measured 5 days post compound treatment under green house conditions; assay type: functional; settings: at 400 ppm
Aphis gossypii [5] = tested on: Aphis gossypii
Bemisia tabaci [6] = tested on: Bemisia tabaci

Structure (SMILES)	mortality at 2.5 ppm (Tetranychus urticae)	mortality (Bemisia tabaci [1])	mortality (Trichoplusia ni [2])	mortality at 50 ppm (Aphis gossypii [3])	mortality (Heliothis virescens)	mortality (Spodoptera exigua)	mortality (Trichoplusia ni [4])	mortality (Aphis gossypii [5])	mortality (Bemisia tabaci [6])
Cc1cc(Oc2ncc(C(F)(F)F)cc2Cl)sc1-c1nc(-c2c(F)cccc2Cl)nn1C	90%	90%	inactive	90%	90%	70%			
Cc1sc(-c2nc(-c3c(F)cccc3Cl)nn2C)c(C)c1-c1ccc(C(F)(F)F)cc1	90%	60%	inactive	< 50%	60%	90%			
CCOc1cccc(-c2cc(C)c(-c3nc(-c4c(F)cccc4Cl)nn3C)s2)c1	70%				<50%	80%	<50%	inactive	inactive
Cc1cc(-c2ccc(OC(F)(F)C(Cl)Cl)cc2)sc1-c1nc(-c2c(F)cccc2Cl)nn1C	90%	50%		90%	90%	90%	80%		
CCOc1ccc(-c2sc(-c3nc(-c4c(F)cccc4Cl)nn3C)c(Cl)c2Br)cc1	60%			< 50%	90%	90%	<50%		inactive
Cc1sc(-c2nc(-c3c(F)cccc3Cl)nn2C)c(C)c1-c1ccc(Cl)cc1	80%			50%	90%	80%	<50%		inactive
Cn1nc(-c2c(F)cccc2Cl)nc1-c1sc(-c2ccc(C(F)(F)F)cc2)cc1Cl	90%	<50%		90%	90%	60%	90%		
Cc1cc(C2CCC(OC(F)(F)C(F)Cl)CC2)sc1-c1nc(-c2c(F)cccc2Cl)nn1C (configuration not stated)	80%			< 50%	90%	90%	90%		
CCOc1ccc(-c2csc(-c3nc(-c4c(F)cccc4Cl)nn3C)c2C)cc1	90%	90%		50%	90%	80%	90%		
CCOc1ccc(-c2sc(-c3nc(-c4c(F)cccc4Cl)nn3C)c(C)c2C)cc1	90%			< 50%	<50%	90%	80%		inactive
Cc1cc(-c2ccc(OC(F)(F)C(F)C(F)(F)F)cc2)sc1-c1nc(-c2c(F)cccc2Cl)nn1C (configuration not stated)	90%	<50%		90%	90%	80%	90%		
Cc1cc(-c2ccc3c(c2)OCCO3)sc1-c1nc(-c2c(F)cccc2Cl)nn1C	90%				90%	80%	80%	inactive	inactive
Cc1cc(-c2ccc(F)cc2)sc1-c1nc(-c2c(F)cccc2Cl)nn1C	60%			< 50%	90%	80%	90%		inactive
Cn1nc(-c2c(F)cccc2Cl)nc1-c1sc(-c2ccc(OC(F)(F)F)cc2)c(Br)c1Cl	80%	<50%		60%	90%	90%	70%		
Cn1nc(-c2c(F)cccc2F)nc1-c1sc(-c2ccc(OC(F)(F)F)cc2)cc1Cl	90%			80%	80%	<50%	<50%		inactive
Cc1cc(-c2ccc(Cl)cc2)sc1-c1nc(-c2c(F)cccc2Cl)nn1C	90%	60%		60%	90%	90%	90%		
Cc1sc(-c2nc(-c3c(F)cccc3Cl)nn2C)c(C)c1-c1ccc(OC(F)(F)F)cc1	90%	60%		70%	90%	90%	<50%		
Cc1cc(-c2ccc(C(F)(F)F)cc2)sc1-c1nc(-c2c(F)cccc2Cl)nn1C	90%	<50%		< 50%	90%	90%	90%		

Structure (SMILES)	mortality at 2.5 ppm (Tetranychus urticae)	mortality (Bemisia tabaci [1])	mortality (Trichoplusia ni [2])	mortality at 50 ppm (Aphis gossypii [3])	mortality (Heliothis virescens)	mortality (Spodoptera exigua)	mortality (Trichoplusia ni [4])	mortality (Aphis gossypii [5])	mortality (Bemisia tabaci [6])
CCOc1ccc(-c2cc(Cl)c(-c3nc(-c4c(F)cccc4F)nn3C)s2)cc1	80%				90%	60%	<50%	inactive	inactive
Cc1cc(-c2cccc(C(F)(F)F)c2F)sc1-c1nc(-c2c(F)cccc2Cl)nn1C	90%			60%	90%	60%	90%		inactive
CSc1ccc(-c2cc(Cl)c(-c3nc(-c4c(F)cccc4Cl)nn3C)s2)cc1	90%	<50%		60%	90%	60%	80%		
Cn1nc(-c2c(F)cccc2Cl)nc1-c1sc(-c2ccc(Br)cc2)cc1Cl	90%			90%	90%	80%	90%		inactive
Cc1cc(-c2ccc(C(C)C)cc2)sc1-c1nc(-c2c(F)cccc2Cl)nn1C	90%			< 50%	90%	70%	90%		inactive
Cc1c(-c2ccc(OC(F)(F)C(F)Cl)cc2)sc(-c2nc(-c3c(F)cccc3Cl)nn2C)c1C (configuration not stated)	80%	60%		< 50%	90%	60%	<50%		
Cc1c(-c2ccc(C(C)C)cc2)csc1-c1nc(-c2c(F)cccc2Cl)nn1C	90%				90%	80%	50%	inactive	inactive
Cc1cc(-c2ccc(OC(C)C)cc2)sc1-c1nc(-c2c(F)cccc2Cl)nn1C	60%				80%	60%	90%	inactive	
Cc1sc(-c2nc(-c3c(F)cccc3Cl)nn2C)c(C)c1-c1ccc(OC(F)(F)C(F)Cl)cc1 (configuration not stated)	70%	80%		< 50%	80%	80%	<50%		
Cc1c(-c2ccc(OC(F)=C(Cl)Cl)cc2)csc1-c1nc(-c2c(F)cccc2Cl)nn1C	90%	70%		70%	90%	80%	<50%		
Cc1c(-c2ccc(OC(F)(F)C(Cl)Cl)cc2)csc1-c1nc(-c2c(F)cccc2Cl)nn1C	90%	90%		90%	90%	90%	<50%		
CCOc1ccc(-c2cc(Cl)c(-c3nc(-c4c(F)cccc4Cl)nn3C)s2)cc1	90%				60%	80%	90%	inactive	inactive
Cc1sc(-c2nc(-c3c(F)cccc3Cl)nn2C)c(C)c1-c1ccc(OC(F)(F)C(F)Br)cc1 (configuration not stated)	80%	80%		50%	90%	80%			
Cc1c(-c2ccc(OC(F)(F)F)cc2)sc(-c2nc(-c3c(F)cccc3Cl)nn2C)c1C	90%	70%		< 50%	<50%	80%	90%		
Cc1cc(-c2ccc3c(c2)COC3)sc1-c1nc(-c2c(F)cccc2Cl)nn1C	80%				90%	60%	70%	inactive	inactive
Cc1c(-c2ccc(OC(F)(F)C(F)C(F)(F)F)cc2)csc1-c1nc(-c2c(F)cccc2Cl)nn1C (configuration not stated)	90%	90%		90%	90%	60%	90%		
Cc1cc(-c2cccc(C(F)(F)F)c2)sc1-c1nc(-c2c(F)cccc2Cl)nn1C	< 50%			< 50%	<50%	70%	90%		inactive
Cc1cc(C2=CCC(OC(=O)C(F)(F)Br)CC2)sc1-c1nc(-c2c(F)cccc2Cl)nn1C (configuration not stated)	70%		inactive	< 50%	90%	<50%			
